According to US20240209038A1, “TARGETING PIEZO1 TO TREAT INHERITED AND AGE-RELATED MACULAR DEGENERATIONS” (priority 2021, published 2024):
No end group written: not given here.

Legend:
RPE [1] = conditions: cited from earlier work; for cholesterol and ceramide accumulation in RPE: Tan et al., 2016
primary porcine RPE = test: Live imaging of calcium influx (Fluo-4 NW) in polarized primary RPE; type: cell-based, pig; conditions: for cytosolic and nuclear calcium at baseline: RPE treated with stressor causing cholesterol and ceramide accumulation; for intracellular calcium spikes in RPE cultured on silica beads: RPE cultured on silica beads to simulate drusen
Text: (§1) Primary adult RPE cultures. Polarized RPE monolayers from pig eyes were generated as described (Kaur et al., 2018; Tan et al., 2016; Toops et al., 2015; Toops et al., 2014). RPE on collagen-coated transwell filters form fully polarized monolayers within two weeks, develop trans-epithelial electrical resistances (TER) of ≥400 ohm·cm^2 and express RPE differentiation markers such as apical Na^+,K^+-ATPase and intracellular RPE65 (Toops et al., 2014).
(§2) Intrinsic stressors to activate Piezo1. RPE monolayers were treated with the bisretinoid A2E to increase cholesterol and ceramide (Kaur et al., 2018; La Cunza et al., 2020; Tan et al., 2016; Toops et al., 2015), which act as intrinsic stressors that activate Piezo1.
Extrinsic stressors to activate Piezo1. To simulate drusen-mediated mechanical stress, cells were cultured on collagen-coated filters layered with 500 nm diameter monodisperse silica microspheres (Cospheric SiO2MS-2.0 0.507 μm) at a density of 40 beads/cm^2 in a collagen (10 μg/cm^2) matrix.
Drugs that modulate Piezo1 activity (Xiao, 2020). Yoda1 is a small molecule gating modifier that specifically potentiates Piezo1 mechanosensitivity and slows the inactivation kinetics with EC50 of ˜10-20 μM. It interacts with the […] domains of Piezo1 and thereby increases channel opening time. […] We treated primary RPE cultures for 6 hours with 10 μM Yoda1 (Sigma SML1558) for immunostaining/immunoblotting and biochemical experiments, or with 25 μM for 1-5 minutes for live imaging experiments. RPE cultures were treated with 500 nM GsMTx-4 (Tocris 4912100U) for 6 h.
High-speed live-cell imaging. The Nikon CSU-X1 dual camera platform spinning disk confocal microscopy system will be used for live imaging of primary RPE cultures and mouse RPE flatmounts. Images will be analyzed using Imaris (Bitplane) (Kaur et al., 2018; Tan et al., 2016; Toops et al., 2015). If necessary, Delta Vision OMX-SR (GE Healthcare Life Sciences) with 3D structured illumination microscopy (3D-SIM) and ring-TIRF capabilities at UCSF's Nikon Imaging Center will be used for super-resolution imaging.
Live imaging of calcium influx. For live imaging of calcium influx, primary porcine RPE grown on Transwell filters±A2E or grown on silica beads, and mouse RPE flatmounts were loaded with Fluo-4 NW (Invitrogen, F36206) for 30 min according to manufacturer's protocol. Excised Transwell filters or mouse RPE flatmounts were mounted onto a Warner chamber in the presence of Fluorobrite DMEM (Gibco, A1896701) supplemented with 1% FBS (ATCC, 30-2020), 1% NEAA (Corning, 25025CI), and 4 mM L-glutamine (Gibco, 25030081) and imaged using Nikon spinning disk confocal microscope with 60× oil immersion objective (1.49 NA). To increase or inhibit Piezo1 channel activity, Yoda1 (25 μM) or GsMTx-4 (5 μM) was added prior to live imaging. Apart from these drugs, preincubation with BAPTA-AM (Thermofisher) was used to determine the Ca^2+-dependence of nuclear and cytosolic signals.

RPE [2] = test: Complement-mediated mitochondrial fragmentation in RPE (mito-RFP live imaging, A2E + 10% NHS); type: cell-based; conditions: A2E-treated RPE exposed to 10% NHS; Simvastatin 5 μM 16 h, T0901317 1 μM 16 h, desipramine 10 μM 3 h
Experimental: (§3) FIGS. 7A-7B. 7A, 3D reconstruction from live imaging of mitochondrial volumes in mock transfected RPE transduced with mito-RFP, treated with A2E and exposed to 10% NHS to induce complement attack. RPE were treated with Simvastatin (5 μM, 16 h), T0901317 (1 μM, 16 h) or desipramine (10 μM, 3 h) prior to imaging. […] 7B, Quantification of fragmented mitochondria per cell from images in A. Mean±SEM, ***, p<0.0001, t-test. C, H3K9me3 (red) immunostaining in retinal cryosections from Abca4−/− mice treated with vehicle or […] desipramine i.p.

Abca4−/− mice = test: Nuclear H3K9me3 in RPE of Abca4−/− mice after drug administration; type: in vivo, mouse; conditions: 10 mg/kg i.p., three times/week for four weeks, compared to vehicle-treated mice
Experimental: as §3
(§4) Mice. There are no mouse models that adequately reproduce AMD phenotypes. We therefore used models that best recapitulate the phenotype of interest. We used pigmented wild-type (129S1/SvlmJ) and Abca4^−/− mice (Jackson Labs) because we and others have reported that Abca4^−/− mice RPE show an age-dependent accumulation of cholesterol and ceramide (Kaur et al., 2018; Lenis et al., 2017; Tan et al., 2016; Toops et al., 2015), which are known to prolong Piezo1 activation (Ridone et al., 2020, Shi et al., 2020).
Antibodies. All antibodies used were validated for specificity using the relevant IgG controls, cell lysates lacking the antigen, or by blocking peptides. […]

Piezo1 [3] = biological target: T1, Piezo1 (Homo sapiens, UniProt Q92508); test: Piezo1 currents in whole cell-clamped primary RPE (patch-clamp/high-speed pressure clamp); type: cell-based; conditions: depletion of membrane cholesterol
T1 construct: Dissociated RPE cells from human donors were whole cell-clamped; endogenous in cells; host or cells: dissociated RPE cells from human donors
T1 sequence (Q92508 whole entry): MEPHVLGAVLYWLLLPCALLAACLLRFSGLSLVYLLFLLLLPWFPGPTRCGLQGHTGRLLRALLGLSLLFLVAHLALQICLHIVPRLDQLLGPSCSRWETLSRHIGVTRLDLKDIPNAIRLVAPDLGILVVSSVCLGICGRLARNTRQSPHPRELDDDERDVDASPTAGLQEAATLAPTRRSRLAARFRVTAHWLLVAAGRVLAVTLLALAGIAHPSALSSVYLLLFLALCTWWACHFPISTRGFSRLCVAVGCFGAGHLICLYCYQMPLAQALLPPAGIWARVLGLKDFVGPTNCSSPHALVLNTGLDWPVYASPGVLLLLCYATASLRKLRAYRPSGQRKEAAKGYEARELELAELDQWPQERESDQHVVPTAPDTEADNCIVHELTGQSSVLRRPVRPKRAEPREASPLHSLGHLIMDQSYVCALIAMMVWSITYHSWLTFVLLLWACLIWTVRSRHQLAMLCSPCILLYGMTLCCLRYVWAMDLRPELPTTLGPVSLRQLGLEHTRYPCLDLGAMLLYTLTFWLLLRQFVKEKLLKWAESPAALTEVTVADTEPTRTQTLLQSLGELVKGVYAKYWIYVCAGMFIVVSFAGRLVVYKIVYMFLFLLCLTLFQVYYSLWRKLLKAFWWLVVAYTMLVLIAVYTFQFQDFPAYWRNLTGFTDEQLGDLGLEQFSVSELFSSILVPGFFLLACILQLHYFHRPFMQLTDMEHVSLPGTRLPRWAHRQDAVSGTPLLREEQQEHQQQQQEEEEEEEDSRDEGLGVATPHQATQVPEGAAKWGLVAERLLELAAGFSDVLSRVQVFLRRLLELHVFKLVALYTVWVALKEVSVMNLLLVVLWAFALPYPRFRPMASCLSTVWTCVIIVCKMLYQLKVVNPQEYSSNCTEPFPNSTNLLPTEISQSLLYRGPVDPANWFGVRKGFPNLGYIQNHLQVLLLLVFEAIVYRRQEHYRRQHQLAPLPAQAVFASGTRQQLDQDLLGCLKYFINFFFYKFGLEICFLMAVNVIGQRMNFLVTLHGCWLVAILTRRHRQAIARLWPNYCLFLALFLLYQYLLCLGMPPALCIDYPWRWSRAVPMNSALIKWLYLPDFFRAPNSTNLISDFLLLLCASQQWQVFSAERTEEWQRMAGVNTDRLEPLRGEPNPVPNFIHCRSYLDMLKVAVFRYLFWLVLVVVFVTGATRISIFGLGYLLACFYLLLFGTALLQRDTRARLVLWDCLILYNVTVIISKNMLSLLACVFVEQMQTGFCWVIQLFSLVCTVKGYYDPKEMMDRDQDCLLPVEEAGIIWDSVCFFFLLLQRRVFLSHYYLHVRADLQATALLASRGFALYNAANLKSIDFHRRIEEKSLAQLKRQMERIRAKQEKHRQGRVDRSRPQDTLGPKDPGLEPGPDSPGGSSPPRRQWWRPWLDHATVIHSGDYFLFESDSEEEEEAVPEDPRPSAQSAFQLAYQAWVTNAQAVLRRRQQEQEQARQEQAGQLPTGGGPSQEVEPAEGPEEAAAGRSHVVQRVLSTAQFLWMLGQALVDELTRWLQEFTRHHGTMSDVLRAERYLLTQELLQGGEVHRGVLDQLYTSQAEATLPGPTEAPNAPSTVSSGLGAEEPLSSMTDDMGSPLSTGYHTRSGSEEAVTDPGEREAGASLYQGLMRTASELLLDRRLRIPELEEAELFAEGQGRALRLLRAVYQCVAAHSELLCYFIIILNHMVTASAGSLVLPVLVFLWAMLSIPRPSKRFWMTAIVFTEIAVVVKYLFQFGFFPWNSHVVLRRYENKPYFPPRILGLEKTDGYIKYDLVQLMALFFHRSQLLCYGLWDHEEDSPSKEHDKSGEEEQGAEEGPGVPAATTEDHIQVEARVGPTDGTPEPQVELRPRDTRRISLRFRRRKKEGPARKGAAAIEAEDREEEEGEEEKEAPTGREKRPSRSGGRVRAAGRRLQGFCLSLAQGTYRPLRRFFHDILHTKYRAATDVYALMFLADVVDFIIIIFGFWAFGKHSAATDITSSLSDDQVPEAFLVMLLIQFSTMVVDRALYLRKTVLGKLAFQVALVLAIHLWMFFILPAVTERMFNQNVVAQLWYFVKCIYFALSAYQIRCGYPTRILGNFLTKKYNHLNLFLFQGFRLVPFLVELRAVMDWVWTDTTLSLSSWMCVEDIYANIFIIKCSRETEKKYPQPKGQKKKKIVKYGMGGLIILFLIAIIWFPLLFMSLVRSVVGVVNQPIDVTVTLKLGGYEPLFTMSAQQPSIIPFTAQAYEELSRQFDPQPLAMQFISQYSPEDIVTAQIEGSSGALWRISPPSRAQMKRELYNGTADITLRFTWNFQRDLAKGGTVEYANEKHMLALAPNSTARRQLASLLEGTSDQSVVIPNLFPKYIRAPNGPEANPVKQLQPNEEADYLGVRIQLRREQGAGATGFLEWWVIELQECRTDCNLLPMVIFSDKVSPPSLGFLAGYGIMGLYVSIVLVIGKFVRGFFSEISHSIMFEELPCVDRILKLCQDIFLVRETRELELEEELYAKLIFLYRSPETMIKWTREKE
Text: FIGS. 3A-3D. Cholesterol and ceramide modulate Piezo1 activation in the RPE. 3A, Stills (at 130 sec and 300 sec) from Fluo4NW live imaging (green); 3B, quantification. In the results provided in FIGS. 3A and 3B, U18 increased cholesterol and ceramide. Mean±SEM, ** p<0.005, unpaired t-test. 3C, Representative traces of whole-cell currents in primary RPE recorded in a typical patch-clamp/HSPC experiment (40 mV holding potential, 25 mm Hg pressure step for 500 mSec). Black trace—control cells; red trace—RPE treated with b-cyclodextrin to deplete membrane cholesterol. 3D, Quantification of results in C. Mean±SEM, n=4 cells.
Electrophysiology. Dissociated RPE cells from human donors were whole cell-clamped. Steps of positive pressure (2-30 mm Hg) were applied through the patch pipette using high-speed pressure clamp (ALA Instruments) or the cells stimulated with msec indentations of a blunt pipette tip (Physik Instrumente) to evoke the mechanosensitive current. The Piezo1-dependent current was confirmed using GsMTx-4 (Lapajne et al., 2020).

Piezo1 [4] = conditions: Suchyna, et al. Nature 430:235-240, 2004; cited from earlier work
[5] = system: polarized primary RPE cultures; test: Live imaging of actin dynamics (SiR-actin) in polarized primary RPE cultures; type: cell-based, pig
Experimental: (§5) FIGS. 4A-4E. 4A, 3D reconstructions; 4B, quantitation of mitochondrial volumes from Tom20 staining in primary RPE cultures treated or not with Yoda1 and GsMTx-4. Warmer colors indicate healthy mitochondria and cooler colors indicate fragmented mitochondria. Mean±SEM; *** p<0.0001, unpaired t-test. 4C, H3K9me3 (red; merge with DAPI appears pink) immunostaining in primary RPE cultured on collagen or collagen with silica beads±GSMTx-4 (500 nM, 3 h). 4D, Actin labeling in live primary RPE cultures. Arrow heads: actin “knots” that indicate areas of actin polymerization prior to actomyosin contraction and cell extrusion. 4E, quantitation of actin staining intensity in primary RPE cultured on collagen or collagen with beads and treated with Yoda1 and/or GsMTx-4. Mean±SEM, *, p<0.05; *** p<0.001, unpaired t-test.
Primary adult RPE cultures. Polarized RPE monolayers from pig eyes were generated as described (Kaur et al., 2018; Tan et al., 2016; Toops et al., 2015; Toops et al., 2014). RPE on collagen-coated transwell filters form fully polarized monolayers within two weeks, develop trans-epithelial electrical resistances (TER) of ≥400 ohm·cm^2 and express RPE differentiation markers such as apical Na^+,K^+-ATPase and intracellular RPE65 (Toops et al., 2014). […]

[6] = system: Abca4−/− mice RPE flatmounts; test: Live imaging of actin (SiR-actin) in mouse RPE flatmounts; type: cell-based; conditions: freshly isolated Abca4−/− mice RPE flatmounts compared to age-matched wild types
Text: FIGS. 5A-5C. Validation of the Abca4−/− mouse model to study the role of Piezo1 in RPE dysfunction. 5A, H3K9me3 (red) immunostaining in 8-month-old wild type and Abca4−/− mouse RPE flatmounts. 5B, reconstruction of mitochondrial volumes from Tom20 staining in wild type and Abca4−/− mouse RPE flatmounts. Warmer colors indicate healthy mitochondria and cooler colors indicate fragmented mitochondria. 5C, Live imaging of mouse RPE flatmounts with FluoNW (green) and SiR-actin (red).
(§6) Live imaging of mouse RPE flatmounts. Tissue from freshly harvested eyes will be mounted onto a Warner chamber in the presence of Fluorobrite DMEM (Gibco, A1896701) supplemented with 1% FBS (ATCC, 30-2020), 1% NEAA (Corning, 25025CI), and 4 mM L-glutamine (Gibco, 25030081) and imaged immediately using a 60× oil immersion objective (1.49 NA).
Live imaging of actin dynamics was performed using SiR-actin (1 μM, 30 min) and FLIPPER-TR plasma membrane probe in RPE with A2E or grown on silica beads±Yoda1±GsMTx-4

primary polarized RPE [7] = test: Mitochondrial volumes/fragmentation from Tom20 staining in primary RPE cultures; type: cell-based, pig
Experimental: as §5, §1
(§7) Drugs that modulate Piezo1 activity (Xiao, 2020). […]

Piezo2 = conditions: specificity for Piezo1; cited from earlier work
[8] = system: Abca4−/− mice RPE flatmounts; test: Live imaging of calcium influx (Fluo-4 NW) in mouse RPE flatmounts; type: cell-based; conditions: preliminary live imaging
Text: as §4, §6
Live imaging of calcium influx. For live imaging of calcium influx, primary porcine RPE grown on Transwell filters±A2E or grown on silica beads, and mouse RPE flatmounts were loaded with Fluo-4 NW (Invitrogen, F36206) for 30 min according to manufacturer's protocol. […]

Piezo1 [9] = conditions: Xiao, 2020; read-out: EC50, potentiates Piezo1 mechanosensitivity and slows the inactivation kinetics; cited from earlier work
primary polarized RPE [10] = test: H3K9me3 immunostaining in primary polarized RPE; type: cell-based, pig; conditions: prolonged piezo1 activation
Experimental: as §5, §1, §7

RPE [11] = test: Cholesterol and ceramide accumulation in the RPE; type: cell-based; conditions: FIGS. 3A and 3B
Experimental: as §2

Piezo1 [12] = biological target: Piezo1 (Mus musculus, UniProt E2JF22); conditions: whole cell recordings as described in Bae et al., Biochemistry 50:6295-300, 2011; range printed with mixed units (nM to μM); read-out: Kd, reversible block of Piezo1 activation; cited from earlier work
Chain of Piezo1 (Mus musculus, UniProt E2JF22) (E2JF22 whole entry): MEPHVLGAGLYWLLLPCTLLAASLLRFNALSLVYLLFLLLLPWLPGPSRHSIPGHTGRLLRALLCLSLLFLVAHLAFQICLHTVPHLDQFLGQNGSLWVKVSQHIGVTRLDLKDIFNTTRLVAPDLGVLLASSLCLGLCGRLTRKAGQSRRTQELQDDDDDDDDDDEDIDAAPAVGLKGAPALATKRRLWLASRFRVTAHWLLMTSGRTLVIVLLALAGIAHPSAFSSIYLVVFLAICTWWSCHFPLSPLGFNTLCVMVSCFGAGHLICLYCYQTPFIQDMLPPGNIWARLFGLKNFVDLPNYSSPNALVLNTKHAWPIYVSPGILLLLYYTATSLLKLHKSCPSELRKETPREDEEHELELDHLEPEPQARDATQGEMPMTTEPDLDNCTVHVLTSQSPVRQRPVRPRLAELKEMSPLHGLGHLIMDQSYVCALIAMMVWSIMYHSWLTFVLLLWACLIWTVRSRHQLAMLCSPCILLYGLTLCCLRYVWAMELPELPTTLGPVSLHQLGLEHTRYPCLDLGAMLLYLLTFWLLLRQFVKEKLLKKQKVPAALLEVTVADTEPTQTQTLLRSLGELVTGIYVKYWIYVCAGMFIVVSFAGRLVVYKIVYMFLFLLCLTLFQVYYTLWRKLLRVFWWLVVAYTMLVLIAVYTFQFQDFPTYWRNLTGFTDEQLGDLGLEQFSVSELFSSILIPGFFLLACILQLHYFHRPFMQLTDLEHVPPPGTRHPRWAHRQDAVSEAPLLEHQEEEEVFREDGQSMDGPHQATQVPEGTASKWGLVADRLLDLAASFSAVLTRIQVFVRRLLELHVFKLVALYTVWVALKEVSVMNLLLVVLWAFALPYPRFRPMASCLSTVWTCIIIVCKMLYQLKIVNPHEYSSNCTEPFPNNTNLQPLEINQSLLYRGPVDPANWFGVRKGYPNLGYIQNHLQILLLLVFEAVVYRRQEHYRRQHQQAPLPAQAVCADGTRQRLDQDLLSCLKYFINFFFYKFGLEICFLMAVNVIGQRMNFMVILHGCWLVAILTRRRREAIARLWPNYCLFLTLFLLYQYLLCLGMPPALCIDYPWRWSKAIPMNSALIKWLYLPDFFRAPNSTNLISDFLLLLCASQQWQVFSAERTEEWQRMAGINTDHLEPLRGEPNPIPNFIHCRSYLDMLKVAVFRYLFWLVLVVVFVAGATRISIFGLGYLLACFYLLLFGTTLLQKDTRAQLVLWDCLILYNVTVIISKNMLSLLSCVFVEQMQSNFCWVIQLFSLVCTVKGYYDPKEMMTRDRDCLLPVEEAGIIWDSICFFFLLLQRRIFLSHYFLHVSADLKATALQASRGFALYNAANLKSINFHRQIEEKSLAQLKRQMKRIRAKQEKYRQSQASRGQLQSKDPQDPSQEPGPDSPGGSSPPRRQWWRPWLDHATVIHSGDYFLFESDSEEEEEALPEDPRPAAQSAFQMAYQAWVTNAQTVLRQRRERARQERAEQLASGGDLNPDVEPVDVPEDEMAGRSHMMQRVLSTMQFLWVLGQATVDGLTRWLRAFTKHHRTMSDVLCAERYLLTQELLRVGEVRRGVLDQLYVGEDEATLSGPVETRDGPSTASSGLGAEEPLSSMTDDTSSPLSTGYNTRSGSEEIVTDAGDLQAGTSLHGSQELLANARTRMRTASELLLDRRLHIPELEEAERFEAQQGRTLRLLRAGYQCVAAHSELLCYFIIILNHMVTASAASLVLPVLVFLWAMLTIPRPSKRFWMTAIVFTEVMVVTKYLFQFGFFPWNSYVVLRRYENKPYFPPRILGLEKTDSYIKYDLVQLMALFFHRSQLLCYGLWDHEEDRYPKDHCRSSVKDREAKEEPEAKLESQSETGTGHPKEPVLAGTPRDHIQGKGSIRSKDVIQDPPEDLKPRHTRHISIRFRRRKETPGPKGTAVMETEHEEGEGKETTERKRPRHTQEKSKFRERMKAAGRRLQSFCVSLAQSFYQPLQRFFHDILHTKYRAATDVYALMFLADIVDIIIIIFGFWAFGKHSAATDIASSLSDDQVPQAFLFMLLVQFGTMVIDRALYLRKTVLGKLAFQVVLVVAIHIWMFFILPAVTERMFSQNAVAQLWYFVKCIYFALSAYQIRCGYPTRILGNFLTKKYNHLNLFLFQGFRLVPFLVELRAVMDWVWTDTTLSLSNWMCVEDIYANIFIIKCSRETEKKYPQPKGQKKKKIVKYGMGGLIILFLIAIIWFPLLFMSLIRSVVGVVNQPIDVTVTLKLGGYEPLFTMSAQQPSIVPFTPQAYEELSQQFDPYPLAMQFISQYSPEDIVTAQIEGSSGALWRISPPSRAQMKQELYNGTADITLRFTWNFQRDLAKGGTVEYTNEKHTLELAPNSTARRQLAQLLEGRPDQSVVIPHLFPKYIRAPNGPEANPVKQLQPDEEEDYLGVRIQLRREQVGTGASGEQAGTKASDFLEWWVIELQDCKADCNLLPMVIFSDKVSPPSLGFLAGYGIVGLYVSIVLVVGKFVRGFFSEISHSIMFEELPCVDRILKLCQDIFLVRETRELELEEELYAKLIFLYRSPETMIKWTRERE

[13] = in vitro and in vivo (Kaur et al., 2018; Tan et al., 2016; Toops et al., 2015)

## CC1=C(/C=C/C(C)=C/C=C/C(C)=C/c2cc(/C=C/C=C(C)/C=C/C3=C(C)CCCC3(C)C)cc[n+]2CCO)C(C)(C)CCC1 [A2E]
RPE [1]
  cholesterol and ceramide accumulation in RPE: cause cholesterol and ceramide accumulation
Primary porcine RPE
  cytosolic and nuclear calcium at baseline: prolonged cytosolic and nuclear calcium even at baseline

## CNCCCN1c2ccccc2CCc2ccccc21 [desipramine]
RPE [2]
  complement-mediated mitochondrial fragmentation in RPE: protect
RPE [1]; [13]
  lipofuscin-induced ceramide accumulation in the RPE: decreased
Abca4−/− mice
  nuclear H3K9me3 in the RPE: restored nuclear H3K9me3

## cyclodextrin
Piezo1 [3]
  peak current amplitudes of Piezo1 currents: drastically decreased

## GsMTx4-L: L enantiomeric form of GsMTx4 (GCLEFWWKCNPNDDKCCRPKLKCSKLFKLCNFSF; ends and bridges not checked; cysteine pairing not given here; UniProt Q7YT39 47-80, looked up)
Piezo1 [4]
  effectiveness at blocking Piezo1 activation, L- versus D-enantiomer: equally effective

## Clc1cccc(Cl)c1CSc1nnc(-c2cnccn2)s1 [Yoda1]
[5]
  actin accumulation at cell-cell junctions: caused rapid actin accumulation at cell-cell junctions
[6]
  actin intensity in RPE flatmounts: increased actin intensity
Primary polarized RPE [7]
  mitochondrial fragmentation: mitochondrial fragmentation
Piezo2
  activation of Piezo2: does not activate Piezo2
[8]
  calcium influx in freshly isolated RPE flatmounts: increased calcium influx
Piezo1 [9]
  EC50: 10 to 20 µM
Primary polarized RPE [10]
  nuclear H3K9me3: loss of nuclear H3K9me3
Primary porcine RPE; 25 μM, 1 min, RPE on collagen, live imaging
  calcium influx in the RPE: induces a rapid nuclear calcium influx within seconds
Primary porcine RPE
  intracellular calcium spikes in RPE cultured on silica beads: further potentiated

## CCN(CC)CCO[C@H]1CC[C@@]2(C)C(=CC[C@@H]3[C@@H]2CC[C@]2(C)C(=O)CC[C@@H]32)C1 [U18666A]
RPE [11]
  cholesterol and ceramide in RPE: increased
RPE [1]
  cholesterol and ceramide accumulation in RPE: cause cholesterol and ceramide accumulation
Primary porcine RPE
  cytosolic and nuclear calcium at baseline: prolonged cytosolic and nuclear calcium even at baseline
Primary porcine RPE; RPE+U18 versus control RPE, where they returned to baseline within minutes
  calcium levels after Yoda1 treatment: remained high in all cellular compartments

## GsMTx-4
[5]
  actin accumulation at cell-cell junctions: prevented
Primary polarized RPE [7]
  mitochondrial fragmentation: protected RPE mitochondria
Piezo1 [12]
  Kd: 155 to 2000 nM
Primary porcine RPE
  intracellular calcium spikes in RPE cultured on silica beads: decreased

## O=S(=O)(c1ccccc1)N(CC(F)(F)F)c1ccc(C(O)(C(F)(F)F)C(F)(F)F)cc1 [T0901317]
RPE [2]
  complement-mediated mitochondrial fragmentation in RPE: protect
RPE [1]; [13]
  lipofuscin-induced cholesterol accumulation in the RPE: decreased
